Measurements reported in PMC10661964 (Current Drug Metabolism, 2023).
Where “and” joins values, the source holds several entries; their conditions need not be identical. Identical values can stand only once. Like-named read-outs stand apart in the source and are kept apart here.

Columns and labels:
[1] = human, estimation accounting for GFR, fu (57.6%), and AUC
[2] = rats, assuming oral bioavailability of 90% and fu 62.1%
[3] = Quantification of nifurtimox and metabolites in rat plasma after a single high dose (200 mg/kg); type: in vivo, Wistar rats; settings: Wistar, rat, plasma, po, 200 mg/kg
Protocol: Blood cells and plasma were then separated by centrifugation, and the plasma was stored at ≤-15°C until required. For analysis, plasma samples were thawed at room temperature and homogenized by vortex mixing. Plasma samples were pooled separately for male and female rats by combining 25 µL from each of the 4 animals for each timepoint. […] To each pooled plasma (100 µL), calibration, or control sample, 300 µL of an internal standard solution containing [^2H8]-nifurtimox (500 ng/mL) and [^2H3]-M-6 (2500 ng/mL) in acetonitrile + 0.5% formic acid in water (v/v) was added and mixed thoroughly. All samples were then centrifuged (20,000 g, 5 min) to precipitate the protein. The supernatant was analyzed using a 1290 Infinity LC system equipped with a diode array detector and an Orbitrap Q-Exactive Plus HRMS (Thermo Fisher Scientific, Bremen, Germany) with a heated electrospray ionization source. […] The mobile phase gradient was: 0 min, 0% B; 2.5 min, 0% B; 3 min, 20% B; 8 min, 45% B; 9 min, 90% B; 10.1 min, 90% B; 12 min, 0% B; 13 min, 0% B. The following HRMS parameters were used: mass range, 120-200 Da (0-2.5 min) and 230-600 Da (2.5-13 min) in full scan mode; resolution, 280,000; ion source voltage, 3500 V; capillary temperature, 300°C; source temperature, 60°C.
The calibration was based on the relative peak area as a function of concentration obtained by linear regression. […] Thus, all concentrations in μg/mL were back-calculated to nmol/mL. The PK parameters for each analyte were calculated using ToxKin software, as described above.

[4] = in vitro; settings: rat, plasma
[5] = rat, in vivo, 2.5 mg/kg
[6] = Protocol: One aliquot of a pooled urine sample taken at 0.25 h post-dose was analyzed immediately using HPLC-LSC. Further aliquots were analyzed after storage for 24 h at room temperature. […] After incubation for 22.5 h at 37°C with shaking, incubations were terminated by the addition of acetonitrile, then extracted (three times with 2 mL acetonitrile for 30 min) and centrifuged (1726 g, 3 min). The combined supernatant was analyzed directly using HPLC-LSC.
[7] = within 2-3 days of oral or i.v. dosing in rats and dogs; cited from earlier work
[8] = Stability study: metabolite profiles in snap-frozen plasma and urine at early timepoints after oral [14C]-nifurtimox; type: in vivo, male Wistar rats; settings: for share of sample radioactivity in plasma / share of sample radioactivity in urine: oral 2.5 mg/kg, snap-frozen
Protocol: (§1) Animals were housed in suitable metabolism cages. […] Blood cells and plasma were separated by centrifugation. Plasma was stored at ≤-15°C prior to analysis. […] All biological samples were weighed immediately. […] The remaining carcass was also wet-weighed.
The combined supernatant was analyzed directly using HPLC-LSC.

[9] = Plasma PK of total radioactivity, [14C]-nifurtimox and metabolites after oral dosing (HPLC-LSC); type: in vivo; settings: male Wistar rats
Protocol: as §1
Aliquots of individual plasma samples were pooled separately for each timepoint by equal volume. For protein precipitation, pooled plasma was treated with a three-fold volume of acetonitrile. Samples were homogenized and precipitated by centrifugation (20,000 g, 5 min). Samples were concentrated and analyzed using high-performance liquid chromatography (HPLC) with off-line radioactivity detection by LSC (HPLC-LSC).

[10] = humans, dogs, and rats, oral administration; cited from earlier work
[11] = Mass balance and metabolite profiling in excreta after i.v. [14C]-nifurtimox in bile duct-cannulated (BDC) rats; type: in vivo, male Wistar rats; settings: for component excreted in bile, i.v. dosing / administered dose secreted directly into the gut / dose excreted in feces / dose present in the gastrointestinal tract including contents: 2.5 mg/kg; for administered dose secreted directly into the gut: gastrointestinal tract + feces
Protocol: as §1

[12] = Mass balance and metabolite profiling in excreta after oral [14C]-nifurtimox in intact rats; settings: for component excreted in urine, oral dosing: intact male Wistar rats, 2.5 mg/kg oral; for component excreted in urine, oral dosing / radioactivity excreted in urine / radioactivity excreted in feces: up to 120 h, 2.5 mg/kg
[13] = cited from earlier work
[14] = single oral 2.5 mg/kg [14C]-nifurtimox, pooled plasma
[15] = BDC male Wistar rats, 2.5 mg/kg i.v., up to 24 h
[16] = total radioactivity, i.v. 2.5 mg/kg, BDC rats
[17] = total radioactivity, i.v. 2.5 mg/kg, BDC rats, 24 h
[18] = total radioactivity, i.v. 2.5 mg/kg, BDC rats, 24 h, listed as [^14C]-nifurtimox
[19] = total radioactivity, i.v. 2.5 mg/kg, BDC rats, 24 h, listed as [14C]-nifurtimox
[20] = total radioactivity, oral 2.5 mg/kg, intact rats
[21] = total radioactivity, oral 2.5 mg/kg, intact rats, listed as [^14C]-nifurtimox
[22] = oral, Medenwald et al. and seven healthy volunteers

Compound: CC1CS(=O)(=O)CCN1/N=C/c1ccc([N+](=O)[O-])o1 (centres unmarked) [Nifurtimox, (E)-N-(3-methyl-1,1-dioxo-1,4-thiazinan-4-yl)-1-(5-nitrofuran-2-yl) methanimine, reference compound]
- dose expected to be excreted unchanged in urine [1]: approximately 10%
- theoretical excretion based on glomerular filtration rate [2]: 23 % of the dose
- AUC(0-t) ([3]; female, read-out: AUC(0–24), female animals): 117 µM·h
- AUC ([3]; female, read-out: AUC, female animals): 121 µM·h
- Cmax ([3]; female, read-out: Cmax, female animals): 18.3 µM
- Tmax ([3]; female, read-out: tmax, female animals): 1 h
- half-life ([3]; female, read-out: t½, female animals (converted)): 5 h
- AUC(0-t) ([3]; male, read-out: AUC(0–24), male animals): 138 µM·h
- AUC ([3]; male, read-out: AUC, male animals): 184 µM·h
- Cmax ([3]; male, read-out: Cmax, male animals): 10.1 µM
- Tmax ([3]; male, read-out: tmax, male animals): 2 h
- half-life ([3]; male, read-out: t½, male animals (converted)): 5 h
- fraction unbound [4]: 0.621
- component excreted in feces, oral dosing [5]: No unchanged drug was detected
- stability in aqueous control without feces ([6]; 8.8 µM, 37°C, 22.5 h, anaerobic, data not shown): no degradation
- stability in rat feces ([6]; 8.8 µM, aqueous suspension of fresh rat feces, 37°C, 22.5 h, anaerobic): unstable in rat feces
- stability in rat urine ([6]; pooled 0.25 h post-dose urine reanalyzed after storage at room temperature for 24 h): undetectable
- administered radioactivity detected in urine [7]: 40-50%
- share of sample radioactivity in plasma ([8]; 0.25 h post-dose): 81.5 % of sample radioactivity
- share of sample radioactivity in urine ([8]; 0.25 h post-dose): 11 % of sample radioactivity
- share of sample radioactivity in plasma ([8]; 0.5 h post-dose): 72.5 % of sample radioactivity
- share of sample radioactivity in urine ([8]; 0.5 h post-dose): 4 % of sample radioactivity
- stability in plasma ([8]; authors' conclusion from plasma profiles): appears to be stable in plasma
- t½ ([9]; single oral 2.5 mg/kg [14C]-nifurtimox, plasma, interval up to 8 h, 2.5 mg/kg): 1.44 h
- AUC [9, 14]: 1730 µg-eq*h/L
- AUC(0-8) [9, 14]: 1680 µg-eq*h/L
- AUC(0-tn) [9, 14]: 1570 µg-eq*h/L
- Cmax [9, 14]: 755 µg-eq/L
- tn (time of last quantifiable concentration) [9, 14]: 5 h
- half-life ([9]; male, Wistar, rat, plasma, po, 2.5 mg/kg, single oral 2.5 mg/kg [14C]-nifurtimox, plasma, interval up to 8 h, read-out: t½ (converted)): 1.4 h
- Tmax ([9]; rat, single oral 2.5 mg/kg [14C]-nifurtimox, pooled plasma): 0.5 h
- tmax of radioactivity ([9]; total radioactivity, oral 2.5 mg/kg): 0.5 h
- unlabeled nifurtimox excreted in urine [10]: no more than 0.5 % of the administered dose
- component excreted in urine, i.v. dosing [11, 15]: 0.847 % of the administered dose
- component excreted in bile, i.v. dosing [11, 15]: 0.560 % of the administered dose
- component excreted in bile, i.v. dosing ([11]; BDC male Wistar rats, 2.5 mg/kg i.v., up to 24 h, listed as nifurtimox): 0.6 % of the administered dose
- administered dose excreted in bile within 24 h [11, 16]: 17.7%
- administered dose excreted in urine within 24 h [11, 16]: 49.6%
- recovery of administered radioactivity at 24 h [11, 16]: 94.2%
- dose in residues (body excluding the GIT) [11, 17]: 17.6%
- dose in the cage wash [11, 17]: 2.48%
- administered dose secreted directly into the gut [11, 17]: < 7%
- administered dose secreted directly into the gut [11, 18]: 6.9%
- dose excreted in feces [11, 19]: 2.45%
- dose present in the gastrointestinal tract including contents [11, 19]: 4.45%
- dose excreted in feces [11, 18]: 2.5%
- dose present in the gastrointestinal tract including contents [11, 18]: 4.5%
- component excreted in urine, oral dosing [12]: 0.117 % of the administered dose
- component excreted in urine, oral dosing ([12]; listed as [^14C]-nifurtimox): 0.1 % of the administered dose
- component excreted in urine, oral dosing ([12]; listed as nifurtimox): < 1 % of the administered dose
- share of sample radioactivity in urine ([12]; pooled urine 0-8 h post-dose, oral 2.5 mg/kg): 0.3 % of sample radioactivity
- total recovery including excreta, residues, and cage wash ([12]; total radioactivity, 120 h after oral dosing): 97.3%
- administered radioactivity excreted within 24 h [12, 20]: approximately 86%
- radioactivity excreted within 120 h (urine + feces) [12, 20]: 92.4 % of dose
- radioactivity excreted in urine [12, 20]: 48.6 % of dose
- radioactivity excreted in feces ([12]; total radioactivity, oral 2.5 mg/kg, intact rats, listed as [14C]-nifurtimox): 43.8 % of dose
- radioactivity excreted in feces [12, 21]: 43.8 % of dose and 49 % of dose
- radioactivity excreted in urine [12, 21]: 48.6 % of dose and 44 % of dose
- tmax, patients who had eaten before dosing ([13]; Phase 1 food-effect PK study): 4 h
- Tmax [13, 22]: 2 to 3 h
- average elimination half-life (t½) [13, 22]: approximately 3 hours
- AUC greater in fed compared to fasting patients ([13]; same nifurtimox dose, Phase 1 food-effect study): 70%
